Test results reported in PubChem BioAssay (NCI).
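Cultured in 96-well plates, cells were exposed to test compound for 48 hours across five concentrations. Definition used: TGI = concentration required for complete inhibition of growth.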

Columns and labels:
Experiment in all cases: growth of human tumour cells (NCI), 48 h
SNB-19 CNS = test system: SNB-19 CNS
HL-60(TB) leukemia = test system: HL-60(TB) leukemia
HOP-18 NSCLC = test system: HOP-18 NSCLC
IGROV1 ovarian = test system: IGROV1 ovarian
SW-620 colon = test system: SW-620 colon
K-562 leukemia = test system: K-562 leukemia
RXF 393 renal = test system: RXF 393 renal
MALME-3M melanoma = test system: MALME-3M melanoma
HCC-2998 colon = test system: HCC-2998 colon
KM20L2 colon = test system: KM20L2 colon
M19-MEL melanoma = test system: M19-MEL melanoma
ACHN renal = test system: ACHN renal
CAKI-1 renal = test system: CAKI-1 renal
U251 CNS = test system: U251 CNS
LXFL 529 NSCLC = test system: LXFL 529 NSCLC
RPMI-8226 leukemia = test system: RPMI-8226 leukemia
UACC-62 melanoma = test system: UACC-62 melanoma
SNB-78 CNS = test system: SNB-78 CNS
TK-10 renal = test system: TK-10 renal
NCI-H226 lung = test system: NCI-H226 lung
OVCAR-5 ovarian = test system: OVCAR-5 ovarian
EKVX NSCLC = test system: EKVX NSCLC
HCT-116 colon = test system: HCT-116 colon
A498 renal = test system: A498 renal
DLD-1 colon = test system: DLD-1 colon
SF-539 CNS = test system: SF-539 CNS
UACC-257 melanoma = test system: UACC-257 melanoma
MOLT-4 leukemia = test system: MOLT-4 leukemia
XF 498 CNS = test system: XF 498 CNS
SF-295 CNS = test system: SF-295 CNS
SNB-75 CNS = test system: SNB-75 CNS
NCI-H460 lung = test system: NCI-H460 lung
NCI-H522 lung = test system: NCI-H522 lung
SN12C renal = test system: SN12C renal
COLO 205 colon = test system: COLO 205 colon
SK-MEL-28 melanoma = test system: SK-MEL-28 melanoma
OVCAR-4 ovarian = test system: OVCAR-4 ovarian
UO-31 renal = test system: UO-31 renal
HCT-15 colon = test system: HCT-15 colon
DMS 273 small cell lung = test system: DMS 273 small cell lung
LOX IMVI melanoma = test system: LOX IMVI melanoma
M14 melanoma = test system: M14 melanoma
OVCAR-3 ovarian = test system: OVCAR-3 ovarian
SF-268 CNS = test system: SF-268 CNS
HOP-62 NSCLC = test system: HOP-62 NSCLC
HT29 colon = test system: HT29 colon
OVCAR-8 ovarian = test system: OVCAR-8 ovarian
A549 NSCLC = test system: A549 NSCLC
KM12 colon = test system: KM12 colon
HOP-92 NSCLC = test system: HOP-92 NSCLC
SK-MEL-2 melanoma = test system: SK-MEL-2 melanoma
NCI-H23 lung = test system: NCI-H23 lung
SK-OV-3 ovarian = test system: SK-OV-3 ovarian
DMS 114 small cell lung = test system: DMS 114 small cell lung
786-0 renal = test system: 786-0 renal
CCRF-CEM leukemia = test system: CCRF-CEM leukemia
RXF-631 renal = test system: RXF-631 renal
SK-MEL-5 melanoma = test system: SK-MEL-5 melanoma
SR leukemia = test system: SR leukemia

Structure (SMILES): Cc1nc2c(nc1C)C(=O)C1=C(C2=O)C2C=CC1CC2
- TGI (SNB-19 CNS): > 61.2 µM
- TGI (HL-60(TB) leukemia): 4.26 µM
- TGI (HOP-18 NSCLC): 30.2 µM
- TGI (IGROV1 ovarian): 9.93 µM
- TGI (SW-620 colon): 8.09 µM
- TGI (K-562 leukemia): 6.15 µM
- TGI (RXF 393 renal): 18.5 µM
- TGI (MALME-3M melanoma): 24.4 µM
- TGI (HCC-2998 colon): > 62.1 µM
- TGI (KM20L2 colon): 52.8 µM
- TGI (M19-MEL melanoma): 3.46 µM
- TGI (ACHN renal): 24.9 µM
- TGI (CAKI-1 renal): 37.6 µM
- TGI (U251 CNS): 10.1 µM
- TGI (LXFL 529 NSCLC): 3.19 µM
- TGI (RPMI-8226 leukemia): 7.35 µM
- TGI (UACC-62 melanoma): 12.3 µM
- TGI (SNB-78 CNS): 10.6 µM
- TGI (TK-10 renal): > 55.9 µM
- TGI (NCI-H226 lung): 30.8 µM
- TGI (OVCAR-5 ovarian): 36.9 µM
- TGI (EKVX NSCLC): 18.9 µM
- TGI (HCT-116 colon): 3.12 µM
- TGI (A498 renal): 98.7 µM
- TGI (DLD-1 colon): 21.6 µM
- TGI (SF-539 CNS): 26.9 µM
- TGI (UACC-257 melanoma): 14.5 µM
- TGI (MOLT-4 leukemia): 5.38 µM
- TGI (XF 498 CNS): 14.5 µM
- TGI (SF-295 CNS): 25 µM
- TGI (SNB-75 CNS): 61.6 µM
- TGI (NCI-H460 lung): 39.8 µM
- TGI (NCI-H522 lung): 5.91 µM
- TGI (SN12C renal): 32.4 µM
- TGI (COLO 205 colon): 29.8 µM
- TGI (SK-MEL-28 melanoma): 35.6 µM
- TGI (OVCAR-4 ovarian): 3.5 µM
- TGI (UO-31 renal): 26.1 µM
- TGI (HCT-15 colon): 38.1 µM
- TGI (DMS 273 small cell lung): 29.8 µM
- TGI (LOX IMVI melanoma): 6.14 µM
- TGI (M14 melanoma): 27.3 µM
- TGI (OVCAR-3 ovarian): 17.3 µM
- TGI (SF-268 CNS): 12.3 µM
- TGI (HOP-62 NSCLC): 53.9 µM
- TGI (HT29 colon): 41.7 µM
- TGI (OVCAR-8 ovarian): 10.8 µM
- TGI (A549 NSCLC): 41.5 µM
- TGI (KM12 colon): 33.3 µM
- TGI (HOP-92 NSCLC): 4.48 µM
- TGI (SK-MEL-2 melanoma): 29 µM
- TGI (NCI-H23 lung): 19.6 µM
- TGI (SK-OV-3 ovarian): > 96.3 µM
- TGI (DMS 114 small cell lung): 3.71 µM
- TGI (786-0 renal): 24.8 µM
- TGI (CCRF-CEM leukemia): 5.9 µM
- TGI (RXF-631 renal): 13.9 µM
- TGI (SK-MEL-5 melanoma): 4.82 µM

Structure (SMILES): Cc1cccc(-c2cc(=O)c3cc(C)c(C)c(C(=O)O)c3o2)c1
- TGI (SNB-19 CNS): > 100 µM
- TGI (HL-60(TB) leukemia): > 100 µM
- TGI (HOP-18 NSCLC): > 100 µM
- TGI (IGROV1 ovarian): > 100 µM
- TGI (SW-620 colon): > 100 µM
- TGI (K-562 leukemia): > 100 µM
- TGI (MALME-3M melanoma): > 100 µM
- TGI (HCC-2998 colon): > 100 µM
- TGI (KM20L2 colon): > 100 µM
- TGI (M19-MEL melanoma): > 100 µM
- TGI (ACHN renal): > 100 µM
- TGI (CAKI-1 renal): > 100 µM
- TGI (U251 CNS): > 100 µM
- TGI (LXFL 529 NSCLC): > 100 µM
- TGI (RPMI-8226 leukemia): > 100 µM
- TGI (UACC-62 melanoma): > 100 µM
- TGI (SNB-78 CNS): > 100 µM
- TGI (TK-10 renal): > 100 µM
- TGI (NCI-H226 lung): > 100 µM
- TGI (OVCAR-5 ovarian): > 100 µM
- TGI (EKVX NSCLC): > 100 µM
- TGI (HCT-116 colon): > 100 µM
- TGI (SR leukemia): > 100 µM
- TGI (DLD-1 colon): > 100 µM
- TGI (SF-539 CNS): > 100 µM
- TGI (UACC-257 melanoma): > 100 µM
- TGI (MOLT-4 leukemia): > 100 µM
- TGI (XF 498 CNS): > 100 µM
- TGI (SF-295 CNS): > 100 µM
- TGI (SNB-75 CNS): > 100 µM
- TGI (NCI-H460 lung): > 100 µM
- TGI (NCI-H522 lung): > 100 µM
- TGI (SN12C renal): > 100 µM
- TGI (COLO 205 colon): > 100 µM
- TGI (SK-MEL-28 melanoma): > 100 µM
- TGI (OVCAR-4 ovarian): > 100 µM
- TGI (UO-31 renal): > 100 µM
- TGI (HCT-15 colon): > 100 µM
- TGI (DMS 273 small cell lung): > 100 µM
- TGI (LOX IMVI melanoma): > 100 µM
- TGI (M14 melanoma): > 100 µM
- TGI (OVCAR-3 ovarian): > 100 µM
- TGI (HOP-62 NSCLC): > 100 µM
- TGI (HT29 colon): > 100 µM
- TGI (OVCAR-8 ovarian): > 100 µM
- TGI (A549 NSCLC): > 100 µM
- TGI (KM12 colon): > 100 µM
- TGI (HOP-92 NSCLC): > 100 µM
- TGI (SK-MEL-2 melanoma): > 100 µM
- TGI (NCI-H23 lung): > 100 µM
- TGI (SK-OV-3 ovarian): > 100 µM
- TGI (DMS 114 small cell lung): > 100 µM
- TGI (786-0 renal): > 100 µM
- TGI (CCRF-CEM leukemia): > 100 µM
- TGI (RXF-631 renal): > 100 µM
- TGI (SK-MEL-5 melanoma): > 100 µM

Structure (SMILES): COc1cc2c3c(c1OC)-c1ccccc1C(C(O)c1ccccc1)C3N(C)CC2 (stereo not given)
- TGI (SNB-19 CNS): > 100 µM
- TGI (HL-60(TB) leukemia): 43.6 µM
- TGI (HOP-18 NSCLC): > 100 µM
- TGI (IGROV1 ovarian): 80.6 µM
- TGI (SW-620 colon): > 100 µM
- TGI (K-562 leukemia): 76.4 µM
- TGI (RXF 393 renal): 29.1 µM
- TGI (MALME-3M melanoma): 35 µM
- TGI (HCC-2998 colon): 33.7 µM
- TGI (KM20L2 colon): 48.8 µM
- TGI (M19-MEL melanoma): > 100 µM
- TGI (ACHN renal): > 100 µM
- TGI (U251 CNS): > 100 µM
- TGI (LXFL 529 NSCLC): > 100 µM
- TGI (RPMI-8226 leukemia): 82.7 µM
- TGI (UACC-62 melanoma): > 100 µM
- TGI (SNB-78 CNS): > 100 µM
- TGI (TK-10 renal): > 100 µM
- TGI (NCI-H226 lung): 72.8 µM
- TGI (OVCAR-5 ovarian): > 100 µM
- TGI (EKVX NSCLC): > 100 µM
- TGI (HCT-116 colon): 39.2 µM
- TGI (SR leukemia): 47 µM
- TGI (DLD-1 colon): 66.1 µM
- TGI (SF-539 CNS): 42.3 µM
- TGI (UACC-257 melanoma): 40.6 µM
- TGI (MOLT-4 leukemia): 89 µM
- TGI (XF 498 CNS): 52.3 µM
- TGI (SF-295 CNS): > 100 µM
- TGI (SNB-75 CNS): > 100 µM
- TGI (NCI-H460 lung): 90 µM
- TGI (NCI-H522 lung): 35.9 µM
- TGI (SN12C renal): 99.2 µM
- TGI (COLO 205 colon): 29.6 µM
- TGI (SK-MEL-28 melanoma): 41.6 µM
- TGI (UO-31 renal): 68.3 µM
- TGI (HCT-15 colon): 76.9 µM
- TGI (DMS 273 small cell lung): 64.6 µM
- TGI (LOX IMVI melanoma): > 100 µM
- TGI (M14 melanoma): 35.6 µM
- TGI (OVCAR-3 ovarian): > 100 µM
- TGI (SF-268 CNS): > 100 µM
- TGI (HOP-62 NSCLC): 71.6 µM
- TGI (HT29 colon): 72 µM
- TGI (OVCAR-8 ovarian): > 100 µM
- TGI (A549 NSCLC): > 100 µM
- TGI (KM12 colon): 72.4 µM
- TGI (HOP-92 NSCLC): > 100 µM
- TGI (SK-MEL-2 melanoma): 88.2 µM
- TGI (NCI-H23 lung): > 100 µM
- TGI (SK-OV-3 ovarian): > 100 µM
- TGI (DMS 114 small cell lung): 43.9 µM
- TGI (786-0 renal): > 100 µM
- TGI (CCRF-CEM leukemia): > 100 µM
- TGI (RXF-631 renal): 65.8 µM
- TGI (SK-MEL-5 melanoma): 28 µM
